From PMC9919513, “A Practical Approach to Bicyclic Carbamoyl Pyridones with Application to the Synthesis of HIV-1 Integrase Strand Transfer Inhibitors” (Molecules, 2023)

Assays:
[1] = test system: HIV-1 vectors bearing the S230N IN mutant; assay: Single-round HIV-1 replication antiviral assay, S230N IN mutant; assay type: cell-based; conditions: for EC50: Human immunodeficiency virus 1, HOS, 48 h, read-out: EC50, antiviral potency, S230N IN mutant
Text: To further evaluate the antiviral activities of select compounds, we determined their EC50 values against the IN mutant S230N, which has been selected in vitro against an early Merck INSTI L810,830, a prototype for naphthyridine analogs.
Human embryonic kidney cell culture cell line 293 was acquired from the American Type Culture Collection (ATCC). The human osteosarcoma cell line, HOS, was obtained from Dr. Richard Schwartz (Michigan State University, East Lansing, MI, USA) and grown in Dulbecco’s modified Eagle’s medium (Invitrogen, Carlsbad, CA, USA) supplemented with 5% (v/v) fetal bovine serum, 5% newborn calf serum, and penicillin (50 units/mL) plus streptomycin (50 µg/mL; Quality Biological, Gaithersburg, MD, USA). The transfection vector, pNLNgoMIVR-ΔLUC was made from pNLNgoMIVR-ΔEnv.HSA by removing the HSA reporter gene and replacing it with a luciferase reporter gene between the NotI and XhoI restriction sites. To produce the new IN mutant S230N used in this study, the IN open reading frame was removed from pNLNgoMIVR-ΔENV.LUC by digestion with KpnI and SalI, and the resulting fragment was inserted between the KpnI and SalI sites of pBluescript KS+. Using that construct as the wild-type template, we prepared the following HIV-1 IN mutant S230N using the QuikChange II XL site-directed mutagenesis kit (Agilent Technologies, Santa Clara, CA, USA) protocol. The following sense oligonucleotides were used with matching cognate antisense oligonucleotides (not shown) (Integrated DNA Technologies, Coralville, IA, USA) in the mutagenesis: S230N 5′-[…]-3′. The DNA sequence of the IN mutant S230N construct was verified independently by DNA sequence determination. The mutated IN coding sequences from pBluescript KS+ were then subcloned into pNLNgoMIVR-ΔEnv.LUC (between the KpnI and SalI sites) to produce mutant HIV-1 constructs, which were also checked by DNA sequencing. […]. On the day prior to transfection, 293 cells were plated on 100 mm diameter dishes at a density of 1.5 × 10^6 cells per plate. Next, 293 cells were transfected with 16 µg of pNLNgoMIVR^-ΔLUC and 4 µg of pHCMV-g (obtained from Dr. Jane Burns, University of California, San Diego) using the calcium phosphate method. At approximately 6 h after the calcium phosphate precipitate was added, 293 cells were washed twice with phosphate-buffered saline (PBS) and incubated with fresh media for 48 h. The virus-containing supernatants were then harvested, clarified by low-speed centrifugation, filtrated, and diluted for preparation in antiviral infection assays. On the day prior to the screen, HOS cells were seeded in a 96-well luminescence cell culture plate at a density of 4000 cells in 100 µL per well. On the day of the screen for cellular cytotoxicity determination, cells were treated with compounds from a concentration range of 250 µM to 0.05 µM and then incubated at 37 °C for 48 h. On the day of the screen for antiviral activity infection assays, cells were treated with compounds from a concentration range of 5 µM to 0.0001 µM using 11 serial dilutions and then incubated at 37 °C for 3 h. After compound incorporation and activation in the cell, 100 µL of virus-stock (WT or mutant) diluted to achieve a luciferase signal between 0.2 and 1.5 Relative Luciferase Units (RLUs) was added to each well and further incubated at 37 °C for 48 h. Cellular cytotoxicity was measured by using the ATP Lite Luminescence detection system and monitored by adding 50 µL of cell lysis buffer from the Luminescence ATP detection assay to each well followed by mixing at 700 rpm at room temperature for 5 min using a compact thermomixer. […]

Structure (SMILES) | Ratio of the antiviral potencies after and before hydrogenation (S230N) ([1]; EC50 of saturated 7 over EC50 of unsaturated 6, S230N IN) | EC50 [1] [nM] | melting point [°C]
O=C(NCc1ccc(F)cc1F)c1cn2c(c(O)c1=O)C(=O)N(CCCCO)CC2 [Compound 7e, N-(2,4-Difluorobenzyl)-9-hydroxy-2-(4-hydroxybutyl)-1,8-dioxo-1,3,4,8-tetrahydro-2H-pyrido [1,2-a]pyrazine-7-carboxamide] | 3.28 | 101 | 210 to 215
O=C(NCc1ccc(F)cc1F)c1cn2ccn(CCCCCO)c(=O)c2c(O)c1=O [Compound 6d, N-(2,4-Difluorobenzyl)-9-hydroxy-2-(5-hydroxypentyl)-1,8-dioxo-1,8-dihydro-2H-pyrido [1,2-a]pyrazine-7-carboxamide] |  | 15.4 | 
O=C(NCc1ccc(F)cc1F)c1cn2ccn(CCCCCCO)c(=O)c2c(O)c1=O [Compound 6c, N-(2,4-Difluorobenzyl)-9-hydroxy-2-(6-hydroxyhexyl)-1,8-dioxo-1,8-dihydro-2H-pyrido [1,2-a]pyrazine-7-carboxamide] |  | 9.3 | 
O=C(NCc1ccc(F)cc1F)c1cn2c(c(O)c1=O)C(=O)N(CCCCCCO)CC2 [Compound 7c, N-(2,4-Difluorobenzyl)-9-hydroxy-2-(6-hydroxyhexyl)-1,8-dioxo-1,3,4,8-tetrahydro-2H-pyrido [1,2-a]pyrazine-7-carboxamide] |  | 38 | 208 to 210
O=C(NCc1ccc(F)cc1F)c1cn2ccn(CCCCO)c(=O)c2c(O)c1=O [Compound 6e, N-(2,4-Difluorobenzyl)-9-hydroxy-2-(4-hydroxybutyl)-1,8-dioxo-1,8-dihydro-2H-pyrido [1,2-a]pyrazine-7-carboxamide] |  | 30.7 | 
